In ChEMBL document CHEMBL5316268 (J Med Chem, 2023):
The source made the active and inactive calls. The calls are words filed in the database; no cut-off is given here.

Tests used:
[1] = tested on: A-375; assay: Antiproliferative activity against human A-375 cells at 100 uM incubated for 3 days by Cell Titer-Glo assay; type: functional, cell-based; conditions: time 3.0 day
[2] = Selectivity ratio of IC50 for CD73 in human plasma to IC50 for C-terminal 6His-tagged recombinant human CD73 (27 to 547 residues) expressed in CHO cells; type: cell-based
[3] = molecular target: 5'-nucleotidase (Homo sapiens, UniProt P21589); assay: Inhibition of CD73 in human plasma derived from ovarian cancer patient incubated for 15 mins in presence of 15N5-AMP by LC/MS analysis; type: cell-free
[4] = Plasma protein binding in dog at 10 uM assessed as bound fraction; type: ADME, cell-free, Canis lupus familiaris; conditions: read-out: PPB (converted)
[5] = Plasma protein binding in monkey at 10 uM assessed as bound fraction; type: ADME, cell-free, Macaca mulatta; conditions: rhesus monkey, read-out: PPB (converted)
[6] = molecular target: T1, Cytochrome P450 1A2 (Homo sapiens, UniProt P05177); assay: Inhibition of human CYP1A2 at 10 uM; type: ADME
T1 sequence (P05177 whole entry): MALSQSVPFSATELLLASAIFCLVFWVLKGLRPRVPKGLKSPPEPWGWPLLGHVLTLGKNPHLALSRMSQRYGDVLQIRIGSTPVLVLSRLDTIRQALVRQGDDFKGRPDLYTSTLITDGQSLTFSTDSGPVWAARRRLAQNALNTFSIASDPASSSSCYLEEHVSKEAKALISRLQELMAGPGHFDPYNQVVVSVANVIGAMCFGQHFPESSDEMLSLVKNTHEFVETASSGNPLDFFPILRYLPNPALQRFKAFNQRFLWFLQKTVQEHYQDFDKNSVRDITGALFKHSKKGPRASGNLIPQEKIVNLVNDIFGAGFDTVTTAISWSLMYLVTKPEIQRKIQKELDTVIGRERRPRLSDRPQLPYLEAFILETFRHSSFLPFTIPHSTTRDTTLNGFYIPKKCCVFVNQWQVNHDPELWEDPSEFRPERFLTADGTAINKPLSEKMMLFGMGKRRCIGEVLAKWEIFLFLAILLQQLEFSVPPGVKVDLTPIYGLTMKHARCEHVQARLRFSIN

[7] = Plasma protein binding in human at 10 uM assessed as bound fraction; type: ADME, cell-free; conditions: read-out: PPB (converted)
[8] = molecular target: T2, Cytochrome P450 2B6 (Homo sapiens, UniProt P20813); assay: Inhibition of human CYP2B6 at 10 uM; type: ADME
T2 sequence (P20813 whole entry): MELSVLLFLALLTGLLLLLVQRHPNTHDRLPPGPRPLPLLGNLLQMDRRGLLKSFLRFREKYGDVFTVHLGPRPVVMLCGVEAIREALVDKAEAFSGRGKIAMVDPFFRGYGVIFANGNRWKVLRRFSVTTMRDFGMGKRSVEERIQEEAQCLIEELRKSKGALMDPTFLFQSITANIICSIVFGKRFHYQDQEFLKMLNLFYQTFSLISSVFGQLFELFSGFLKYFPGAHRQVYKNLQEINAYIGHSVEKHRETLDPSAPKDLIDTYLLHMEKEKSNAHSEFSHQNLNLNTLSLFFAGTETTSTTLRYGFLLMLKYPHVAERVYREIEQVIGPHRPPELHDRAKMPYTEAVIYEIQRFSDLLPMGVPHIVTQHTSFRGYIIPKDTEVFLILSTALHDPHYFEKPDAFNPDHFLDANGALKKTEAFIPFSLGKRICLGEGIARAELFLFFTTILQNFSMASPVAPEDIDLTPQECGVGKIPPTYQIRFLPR

[9] = molecular target: Cytochrome P450 3A4 (Homo sapiens, UniProt P08684); assay: Inhibition of human CYP3A4 at 10 uM; type: ADME
[10] = Cmax in CD rat at 200 mg/kg, po measured for 24 hrs by LC-MS/MS analysis; type: ADME, organism-based; set-up: time 24 hrs, dose 200 mg/kg, route po; conditions: in vivo
[11] = Cmax in CD rat at 500 mg/kg, po measured for 24 hrs by LC-MS/MS analysis; type: ADME, organism-based; set-up: dose 500 mg/kg, time 24 hrs, route po; conditions: in vivo
[12] = Tmax in CD rat at 50 mg/kg, po measured for 24 hrs by LC-MS/MS analysis; type: ADME, organism-based; conditions: in vivo
[13] = Tmax in CD rat at 500 mg/kg, po measured for 24 hrs by LC-MS/MS analysis; type: ADME, organism-based; conditions: in vivo
[14] = Drug concentration in CD rat plasma at 50 to 500 mg/kg, po measured for 24 hrs by LC-MS/MS analysis; type: ADME, organism-based; conditions: dose 50-500 mg/kg
[15] = tested on: CD8-positive T cell; assay: Reversal of AMP-mediated suppression of human CD8-positive T cells function assessed as increase in CD25 expression at 0.01 to 1000 nM measured after 4 days by flow cytometry; type: functional, cell-based; conditions: dose 0.01-1000 nM, time 4.0 day
[16] = tested on: CD8-positive T cell; assay: Reversal of AMP-mediated suppression of human CD8-positive T cells function assessed as increase in granzyme B level at 0.01 to 1000 nM measured after 4 days by ELISA; type: functional, cell-based; conditions: dose 0.01-1000 nM, time 4.0 day
[17] = In vivo inhibition of plasma CD73 in mouse xenografted with mouse EG7 cells at 50 mg/kg, po bid administered for 20 days and measured after 2 hrs post last dose in presence of 15N5-AMP and TNAP inhibitor by LC/MS analysis relative to control; type: functional; conditions: EG7, 480 h, time 20 day
[18] = Drug concentration in tumor of mouse implanted with mouse EG7 cells at 10 to 50 mg/kg, po bid administered for 20 days and measured after 16 hrs post-last dose by LC/MS analysis; type: ADME, organism-based, Neoplasm; conditions: dose 10-50 mg/kg, time 20 day, read-out: Ct
[19] = tested on: EG7; assay: Antitumor activity against mouse EG7 cells implanted in C57BL/6 mouse assessed as reduction in tumor volume at 10 to 50 mg/kg, po bid administered for 20 days; type: functional, organism-based; conditions: dose 10-50 mg/kg, time 20.0 day
[20] = tested on: EG7; assay: Antitumor activity against mouse EG7 cells implanted in C57BL/6 mouse assessed as activation of tumor-directed immune response by measuring increase in tumor-infiltrating CD8 positive cells at 50 mg/kg, po bid measured after 14 days by flow cytometry; type: functional, organism-based; conditions: time 14.0 day

Cytochrome P450 3A4, sequence (P08684 whole entry): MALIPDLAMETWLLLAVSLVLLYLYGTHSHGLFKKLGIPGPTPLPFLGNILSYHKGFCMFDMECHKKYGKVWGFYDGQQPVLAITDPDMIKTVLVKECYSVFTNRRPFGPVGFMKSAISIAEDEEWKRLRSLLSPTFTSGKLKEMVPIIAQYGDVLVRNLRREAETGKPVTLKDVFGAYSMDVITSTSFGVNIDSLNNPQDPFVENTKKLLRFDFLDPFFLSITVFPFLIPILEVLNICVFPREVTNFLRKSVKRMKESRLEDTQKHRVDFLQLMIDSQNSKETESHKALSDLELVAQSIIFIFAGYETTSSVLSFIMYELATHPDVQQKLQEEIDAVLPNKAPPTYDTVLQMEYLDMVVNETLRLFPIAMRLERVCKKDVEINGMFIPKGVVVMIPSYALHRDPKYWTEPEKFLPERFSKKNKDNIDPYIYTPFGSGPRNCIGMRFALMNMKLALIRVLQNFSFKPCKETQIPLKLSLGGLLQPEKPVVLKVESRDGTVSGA
5'-nucleotidase, sequence (P21589 whole entry): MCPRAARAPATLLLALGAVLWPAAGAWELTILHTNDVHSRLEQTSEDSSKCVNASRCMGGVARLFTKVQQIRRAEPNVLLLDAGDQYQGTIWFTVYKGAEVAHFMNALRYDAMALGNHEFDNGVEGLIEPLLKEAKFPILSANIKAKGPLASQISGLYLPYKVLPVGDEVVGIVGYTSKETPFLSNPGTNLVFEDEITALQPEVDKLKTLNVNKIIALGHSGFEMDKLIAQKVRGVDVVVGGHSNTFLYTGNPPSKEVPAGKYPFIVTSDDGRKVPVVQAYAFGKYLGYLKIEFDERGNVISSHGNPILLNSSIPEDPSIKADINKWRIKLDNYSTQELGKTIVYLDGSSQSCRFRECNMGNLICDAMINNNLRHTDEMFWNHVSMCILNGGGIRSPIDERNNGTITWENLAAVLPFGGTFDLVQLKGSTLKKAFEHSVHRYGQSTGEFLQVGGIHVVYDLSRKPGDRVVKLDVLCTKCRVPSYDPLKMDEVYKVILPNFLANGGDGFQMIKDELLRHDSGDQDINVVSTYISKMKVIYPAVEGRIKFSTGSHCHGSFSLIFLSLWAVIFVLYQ

IC50 [3]: 0.15 nM
fraction unbound at 10 µM [4]: 0.58
fraction unbound at 10 µM [5]: 0.4
inhibition (INH) [6]: Not Active
fraction unbound at 10 µM [7]: 0.42
inhibition (INH) [8]: Not Active
inhibition (INH) [9]: Not Active
Cmax [10]: 1.8 µM
Cmax [11]: 11 µM
Tmax [12]: 48 min
Tmax [13]: 18 min
concentration at 24 h [14]: > 0.003 µM
concentration at 480 h [18]: > 0.003 µM
Structure (SMILES): C#C[C@@]1(O)[C@@H](COC(Cc2ccc(N3CCCNC3=O)cc2)(C(=O)O)C(=O)O)O[C@@H](n2cnc3c(N)nc(Cl)nc32)[C@@H]1O
Activity [1]: inactive
Ratio IC50 [2]: 2.2
Activity [15]: Active
Activity [16]: Active
inhibition in vivo at 50 mg/kg [17]: 92%
Activity [19]: Active
Activity [20]: Active
